Experimental data reported in patent US6649628B1, “N-[2-hydroxy-3-(1-piperidinyl)propoxy]pyridine-1-oxide-3-carboximidoyl chloride and its use in the treatment of insulin resistance” (Biorex Kutato es Fejleszto RT, priority 1999, dated 2003).

Legend:
Type in all cases: in vivo, rat
STZ diabetic Wistar rats = test: Preliminary test: N-oxide derivatives of bimoclomol on motor and sensor nerve conduction velocity deficit; conditions: 20 mg/kg
Experimental: In a preliminary test the effectiveness of the three N-oxide derivatives of bimoclomol on motor and sensor neuropathy in STZ diabetic Wistar rats were studied. The effectiveness of the three bimoclomol N-oxide derivatives in improving the peripheral motor and sensor nerve conduction velocity deficit caused by streptozotocine-induced diabetes was determined with use of the method described in detail in Experiment 2.
(§1) (Graphpad Instat, San Diego, Calif.).

[1] = test system: obese, insulin resistant, hyperinsulinaemic Zucker fa/fa rats; test: Experiment 1: carbohydrate metabolism (fasting glucose/insulin, ip glucose tolerance test) after 2-month treatment
Experimental: In the experiments so-called Zucker fa/fa rats (Charles River Laboratories Inc.) were used. In […] animals, obesity, insulin resistance, high blood insulin level, impaired glucose tolerance and hypertriglyceridaemia result from hypothalamic leptin receptor mutation. Due to the above characteristics, this is an accepted model of early type 2 diabetes.
The animals were placed in individual metabolic cages for 24 hours at the beginning of the study, and after 1 or 2 months of treatment for 24 hours of urine collection.
The animals were given either the test substances or physiological saline solution by gavage for control once a day between weeks 14-22.
Biochemical parameters of the blood and the urine were measured by a Kodak Ectachem 700 automatic analyzer. The total protein level of the urine was determined spectrophotometrically with the use of Bradford staining (Hitachi U-3200) at 595 nm. The insulin concentration of the serum was determined by the RIA method, using rat anti-insulin antibodies.
Systolic, diastolic blood pressure and heart rate were measured weekly on the tails of the rats (so-called tail cuff method) by a Letica 200 automatic analyzer. After two months of treatment, the level of glucose tolerance was determined by the intraperitoneal glucose tolerance test (2 g/kg ip.).

STZ-diabetic Wistar rats [2] = test: Experiment 2: peripheral neuropathy, nerve conduction velocity after 1-month treatment
Description: as §1

STZ-diabetic Wistar rats [3] = test: Experiment 3: diabetic autonomous neuropathy after 1 month of treatment; conditions: daily 20 mg/kg single dose
Experimental: The experiments were performed under anesthesia achieved by administering 60 mg/kg ip. pentobarbital sodium (Nembutal, Sanofi, Phylaxia). After this, an intratracheal tube or polyethylene canula was inserted into the fermoral artery and vein. The arterial catheter was connected to a pressure transducer for the simultaneous measurement of systolic and diastolic blood pressure (online automatic measuring and forwarding system, with a Haemosys computer program). After 20 minutes of equillibration period, the following substances were administered intravenously: Noradrenalin, 5 μg/kg iv.—Isoproterenol 0.4 μg/kg iv.—N.vagus stimulation (2 V, duration: 500 μsec, delay: 1 msec). The effects of the substances were monitored for 10 minutes.

STZ-diabetic Wistar rats [4] = test: Experiment 4: histological alterations of early diabetic retinopathy after 1 month of treatment; conditions: 1 month
Experimental: Photographs and slide positives were prepared of representative samples.
The given value for negative cases was 0.1. A Box and Whisker plot graph was also prepared.

STZ-diabetic Wistar rats [5] = test: Experiment 5: urinary protein loss caused by diabetic nephropathy after 1-month treatment
Experimental: For the 24-hour period of urine collection, the animals were placed in individual metabolic cages. During this period they were given water ad libitum but no food. The latter measure was necessary to prevent possible contamination by the protein content of the food. Urine was collected in calibrated glass containers, in which Thymol crystal (Reanal 3135-1-08-38) was placed to prevent bacterial contamination.
Before measurement, the urine samples were centrifuged (2500 rpm) and filtered through a paper filter (Whatmann 1). If necessary, they were stored at −20° C. until measurement.
The total protein content of the urine was determined by the Bradford staining method (Sigma B-6916, St. Louis, Mo.), and color intensity was detected by spectrophotometry (Hitachi-U-3200).

[6] = 20 mg/kg p.os daily, 2-month treatment
[7] = intraperitoneal glucose tolerance test
[8] = ip glucose tolerance test 2 g/kg, AUC 0-60 minutes, 20 mg/kg p.os daily, 2-month treatment
[9] = 20 mg/kg p.os once a day, 1 month
[10] = 1 month, isoproterenol 0.4 μg/kg iv.

Compound: O=C(O)/C=C\C(=O)O.OC(CON=C(Cl)c1cccnc1)CN1CCCCC1 (racemic) [bimoclomol, maleate of O-(3-piperidino-2-hydroxy-1-propyl)-3-pyridyne hydroxymic acid-chloride, reference compound]
- Improvement of nerve conduction velocity (%) motor (MNCV) (STZ diabetic Wistar rats): 72,4%
- Improvement of nerve conduction velocity (%) sensor (SNCV) (STZ diabetic Wistar rats): 66,9%
- effect on fasting blood glucose ([1]; 20 mg/kg p.os daily): significantly reduced
- effect on fasting insulin concentration ([1]; 20 mg/kg p.os daily): did not effect
- Fasting Blood Glucose (mean ± SE) [1, 6]: 8.179 ± 0.316 mmol/L
- Fasting Insulin (mean ± SE) [1, 6]: 29.362 ± 9.211 ng/mL
- effect on AUC of insulin [1, 7]: had no effect
- effect on area under the blood glucose curve (AUC) [1, 7]: neither bimoclomol, nor Compound A effected
- Blood Glucose (AUC) (mean ± SE) [1, 8]: 1286.86 ± 131.59
- Insulin (AUC) (mean ± SE) [1, 8]: 2337.71 ± 590.49
- effect on peripheral insulin resistance ([1]; summary of Experiment 1): does not
- MNCV (STZ-diabetic Wistar rats [2]; [9]): 57.4 ± 0.2 m/s
- MNCV improvement (STZ-diabetic Wistar rats [2]; [9]): 79.7%
- SNCV (STZ-diabetic Wistar rats [2]; [9]): 58.5 ± 0.6 m/s
- SNCV improvement (STZ-diabetic Wistar rats [2]; [9]): 77.9%
- effect on motor (MNCV) and sensor (SNCV) nerve conduction velocities (STZ-diabetic Wistar rats [2]; bimoclomol 20 mg/kg, Compound A 5 mg/kg once a day): significantly improved
- effect on pathological deviations resulting from autonomous neuropathy (STZ-diabetic Wistar rats [3]): significantly reduced
- Increased negative chronotropic effect on vagus stimulation (STZ-diabetic Wistar rats [3]; 1 month): ↑ (corrects)
- Reduced hypotension on vagus stimulation (STZ-diabetic Wistar rats [3]; 1 month): ↑ (corrects)
- Systemic arterial hypotension (deviation due to diabetes) (STZ-diabetic Wistar rats [3]; 1 month): ↑ (corrects)
- Weight loss (deviation due to diabetes) (STZ-diabetic Wistar rats [3]; 1 month): ↑ (corrects)
- Reduced IS induced positive chronotropic effect (STZ-diabetic Wistar rats [3]; [10]): ↑ (corrects)
- Reduced IS induced systemic arterial hypotension (STZ-diabetic Wistar rats [3]; [10]): ↑ (corrects)
- Reduced NA induced systemic arterial pressure response (STZ-diabetic Wistar rats [3]; 1 month, noradrenalin 5 μg/kg iv.): ↑ (corrects)
- Score values Improvement % (STZ-diabetic Wistar rats [4]; 20 mg/kg daily): 61.3%
- Score values Mean ± SE (retinopathy histology) (STZ-diabetic Wistar rats [4]; 20 mg/kg daily): 5.185 ± 1.019
- effect on diabetic retinopathy induced pathological histological alterations (STZ-diabetic Wistar rats [4]; Compound A 5 mg/kg, bimoclomol 20 mg/kg daily): significantly improved
- 24-hour Urinary Protein Loss Mean ± SE (STZ-diabetic Wistar rats [5]; 20 mg/kg daily, 1 month, series 1): 3.66 ± 1.39 mg/24 h
- effect on STZ-diabetes-induced urinary protein loss (STZ-diabetic Wistar rats [5]; Bimoclomol 20 mg/kg, Compound-A 10 mg/kg, (+) enantiomer 5 mg/kg daily): significantly reduced
